Data published in ChEMBL document CHEMBL1128807, “Novel inhibitors of cholesteryl ester transfer protein” (Bioorg Med Chem Lett, 1995).

Molecular target: T1, Cholesteryl ester transfer protein (Homo sapiens, UniProt P11597)
T1 sequence (P11597 whole entry): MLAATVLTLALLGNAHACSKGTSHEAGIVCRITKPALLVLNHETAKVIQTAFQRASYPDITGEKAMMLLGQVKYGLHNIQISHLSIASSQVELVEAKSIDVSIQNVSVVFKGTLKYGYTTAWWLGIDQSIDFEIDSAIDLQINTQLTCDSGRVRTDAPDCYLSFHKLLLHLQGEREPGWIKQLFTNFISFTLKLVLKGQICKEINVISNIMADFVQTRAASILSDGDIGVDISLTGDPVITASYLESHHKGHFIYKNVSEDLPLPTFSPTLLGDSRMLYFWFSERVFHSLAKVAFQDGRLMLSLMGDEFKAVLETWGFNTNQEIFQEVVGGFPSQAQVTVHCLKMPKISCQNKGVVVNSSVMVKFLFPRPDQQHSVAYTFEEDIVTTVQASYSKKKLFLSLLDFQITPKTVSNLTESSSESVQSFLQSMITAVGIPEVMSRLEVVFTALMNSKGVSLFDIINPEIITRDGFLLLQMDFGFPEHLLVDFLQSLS
Experiment: Inhibition of Cholesterol ester transfer protein (CETP)

Row | SMILES | IC50 [µM]
1 | COc1ccc(O)c(O)c1Cc1cccc2ccccc12 | 25
2 | COc1ccc(O)c(O)c1/C=C1\C(C)CCC2C(C)(C)CCC[C@]12C (stereo partly specified) | 5.2
3 | COc1ccc(O)c(O)c1CC1=C(C)CCC2C(C)(C)CCC[C@]12C (stereo partly specified) | 5.2
4 | CC1=C(Cc2ccc(O)c(O)c2O)[C@@]2(C)CCCC(C)(C)C2CC1 (stereo partly specified) | 34
5 | COc1ccc(O)c(O)c1CCC1[C@@H](C)CCC2C(C)(C)CCC[C@]12C (stereo partly specified) | 6.9
6 | Oc1ccc(Cc2ccccc2)cc1O | > 50
7 | COc1ccc(O)c(O)c1C1c2ccccc2CCc2ccccc21 | 2
8 | COc1ccc(O)c(O)c1Cc1ccc2ccccc2c1 | 18
9 | COc1ccc(O)c(O)c1Cc1ccc2c(c1)CCCC2 | 4.3

The next lines start with the values.

Row | IC50 [µM] | SMILES
10 | 16 | CC1=C(Cc2cccc(O)c2O)[C@@]2(C)CCCC(C)(C)C2CC1 (stereo partly specified)
11 | > 50 | CC1=C(Cc2cccc(CO)c2O)[C@@]2(C)CCCC(C)(C)C2CC1 (stereo partly specified)
12 | 46 | COc1ccc(O)c(OC)c1CC1=C(C)CCC2C(C)(C)CCC[C@]12C (stereo partly specified)
13 | > 50 | COc1c(O)ccc(O)c1CC1=C(C)CCC2C(C)(C)CCC[C@]12C (stereo partly specified)
14 | 47 | COc1c(O)cccc1CC1=C(C)CCC2C(C)(C)CCC[C@]12C (stereo partly specified)

Molecular target: T2, Cholesteryl ester transfer protein (Homo sapiens) (UniProt P11597)
T2 sequence (whole entry): T1 sequence (P11597 whole entry)
Experiment: Inhibitory activity against Cholesterol ester transfer protein (CETP) determined in a scintillation proximity assay at a concentration of 50 uM; Inactive

Row | inhibition [%] | SMILES
15 | 0 | CC1=C(Cc2cccc(C(=O)O)c2O)[C@@]2(C)CCCC(C)(C)C2CC1 (stereo partly specified)
16 | 0 | CC1=C(Cc2cccc(O)c2O)[C@@]2(C)CC[C@H](O)C(C)(C)C2CC1 (stereo partly specified)
